{"source": "ChEMBL document CHEMBL3885881", "about": "“DrugMatrix”", "species_on_record": "Rattus norvegicus", "experiment": "DrugMatrix - Regimen: Daily Repeat", "type": "toxicity, organism-based, Sprague-Dawley", "parameters": "regimen Daily Repeat, gender Male, age 6-8 weeks", "details": "in vivo, po, 30 mg/kg, route oral GAVAGE, dose level Low, […]; for ABSOLUTE BASOPHIL / ABSOLUTE EOSINOPHIL / ABSOLUTE LYMPHOCYTE / ABSOLUTE MONOCYTE / ABSOLUTE SEGMENTED NEUTROPHIL / BASOPHIL / EOSINOPHIL / ERYTHROCYTE COUNT / HEMATOCRIT / HEMOGLOBIN / LEUKOCYTE COUNT / LYMPHOCYTE / MEAN CORPUSCULAR HEMOGLOBIN / MEAN CORPUSCULAR HEMOGLOBIN CONCENTRATION / MEAN CORPUSCULAR VOLUME / MONOCYTE / NEUTROPHIL / NUCLEATED RED BLOOD CELLS / PLATELET COUNT: tissue Blood; for ALANINE AMINOTRANSFERASE / ALBUMIN / ALKALINE PHOSPHATASE / ASPARTATE AMINOTRANSFERASE / BLOOD UREA NITROGEN / CARBON DIOXIDE / CHLORIDE / CHOLESTEROL / CREATINE PHOSPHOKINASE / CREATININE / GLUCOSE / LACTATE DEHYDROGENASE / LIPASE / PHOSPHORUS / POTASSIUM / SODIUM / TOTAL BILIRUBIN / TOTAL PROTEIN / URIC ACID: tissue Plasma"}
{"smiles": "CS(=O)(=O)Nc1ccc([N+](=O)[O-])cc1Oc1ccccc1", "note": "[NIMESULIDE]", "values": [{"measurement": "ABSOLUTE BASOPHIL", "setting": "72 h, time 3 day", "value": 0, "unit": "CELLS/uL"}, {"measurement": "ABSOLUTE EOSINOPHIL", "setting": "72 h, time 3 day", "value": 25.33, "unit": "CELLS/uL"}, {"measurement": "ABSOLUTE LYMPHOCYTE", "setting": "72 h, time 3 day", "value": 7491.33, "unit": "CELLS/uL"}, {"measurement": "ABSOLUTE MONOCYTE", "setting": "72 h, time 3 day", "value": 125, "unit": "CELLS/uL"}, {"measurement": "ABSOLUTE SEGMENTED NEUTROPHIL", "setting": "72 h, time 3 day", "value": 858.33, "unit": "CELLS/uL"}, {"measurement": "BASOPHIL", "setting": "72 h, time 3 day", "value": 0, "unit": "%"}, {"measurement": "EOSINOPHIL", "setting": "72 h, time 3 day", "value": 0.33, "unit": "%"}, {"measurement": "ERYTHROCYTE COUNT", "setting": "72 h, time 3 day", "value": 5.1, "unit": "x10E6/uL"}, {"measurement": "HEMATOCRIT", "setting": "72 h, time 3 day", "value": 33.1, "unit": "%"}, {"measurement": "HEMOGLOBIN", "setting": "72 h, time 3 day", "value": 12.87, "unit": "G/DL"}, {"measurement": "LEUKOCYTE COUNT", "setting": "72 h, time 3 day", "value": 8.5, "unit": "x10E3/uL"}, {"measurement": "LYMPHOCYTE", "setting": "72 h, time 3 day", "value": 88, "unit": "%"}, {"measurement": "MEAN CORPUSCULAR HEMOGLOBIN", "setting": "72 h, time 3 day", "value": 25.23, "unit": "pg"}, {"measurement": "MEAN CORPUSCULAR HEMOGLOBIN CONCENTRATION", "setting": "72 h, time 3 day", "value": 38.87, "unit": "G/DL"}, {"measurement": "MEAN CORPUSCULAR VOLUME", "setting": "72 h, time 3 day", "value": 64.93, "unit": "fL"}, {"measurement": "MONOCYTE", "setting": "72 h, time 3 day", "value": 1.33, "unit": "%"}, {"measurement": "NEUTROPHIL", "setting": "72 h, time 3 day", "value": 10.33, "unit": "%"}, {"measurement": "NUCLEATED RED BLOOD CELLS", "setting": "72 h, time 3 day", "value": "0 /100WBC"}, {"measurement": "PLATELET COUNT", "setting": "72 h, time 3 day", "value": 1037.67, "unit": "x10E3/uL"}, {"measurement": "ALANINE AMINOTRANSFERASE", "setting": "72 h, time 3 day", "value": 125.67, "unit": "u/L"}, {"measurement": "ALBUMIN", "setting": "72 h, time 3 day", "value": 4.17, "unit": "G/DL"}, {"measurement": "ALKALINE PHOSPHATASE", "setting": "72 h, time 3 day", "value": 434, "unit": "u/L"}, {"measurement": "ASPARTATE AMINOTRANSFERASE", "setting": "72 h, time 3 day", "value": 117, "unit": "u/L"}, {"measurement": "BLOOD UREA NITROGEN", "setting": "72 h, time 3 day", "value": 11, "unit": "mg/dL"}, {"measurement": "CARBON DIOXIDE", "setting": "72 h, time 3 day", "value": 35, "unit": "mmol/L"}, {"measurement": "CHLORIDE", "setting": "72 h, time 3 day", "value": 106.33, "unit": "MEQ/L"}, {"measurement": "CHOLESTEROL", "setting": "72 h, time 3 day", "value": 78, "unit": "mg/dL"}, {"measurement": "CREATINE PHOSPHOKINASE", "setting": "72 h, time 3 day", "value": 456.33, "unit": "u/L"}, {"measurement": "CREATININE", "setting": "72 h, time 3 day", "value": 0.28, "unit": "mg/dL"}, {"measurement": "GLUCOSE", "setting": "72 h, time 3 day", "value": 158.67, "unit": "mg/dL"}, {"measurement": "LACTATE DEHYDROGENASE", "setting": "72 h, time 3 day", "value": 119.33, "unit": "u/L"}, {"measurement": "LIPASE", "setting": "72 h, time 3 day", "value": 11, "unit": "u/L"}, {"measurement": "PHOSPHORUS", "setting": "72 h, time 3 day", "value": 8.8, "unit": "mg/dL"}, {"measurement": "POTASSIUM", "setting": "72 h, time 3 day", "value": 5.65, "unit": "MEQ/L"}, {"measurement": "SODIUM", "setting": "72 h, time 3 day", "value": 146.27, "unit": "MEQ/L"}, {"measurement": "TOTAL BILIRUBIN", "setting": "72 h, time 3 day", "value": 0.13, "unit": "mg/dL"}, {"measurement": "TOTAL PROTEIN", "setting": "72 h, time 3 day", "value": 5.7, "unit": "G/DL"}, {"measurement": "URIC ACID", "setting": "72 h, time 3 day", "value": 0.63, "unit": "mg/dL"}, {"measurement": "ABSOLUTE BASOPHIL", "setting": "120 h, time 5 day", "value": 0, "unit": "CELLS/uL"}, {"measurement": "ABSOLUTE EOSINOPHIL", "setting": "120 h, time 5 day", "value": 83.33, "unit": "CELLS/uL"}, {"measurement": "ABSOLUTE LYMPHOCYTE", "setting": "120 h, time 5 day", "value": 10811.33, "unit": "CELLS/uL"}, {"measurement": "ABSOLUTE MONOCYTE", "setting": "120 h, time 5 day", "value": 335.67, "unit": "CELLS/uL"}, {"measurement": "ABSOLUTE SEGMENTED NEUTROPHIL", "setting": "120 h, time 5 day", "value": 1536.33, "unit": "CELLS/uL"}, {"measurement": "BASOPHIL", "setting": "120 h, time 5 day", "value": 0, "unit": "%"}, {"measurement": "EOSINOPHIL", "setting": "120 h, time 5 day", "value": 0.33, "unit": "%"}, {"measurement": "ERYTHROCYTE COUNT", "setting": "120 h, time 5 day", "value": 5.57, "unit": "x10E6/uL"}, {"measurement": "HEMATOCRIT", "setting": "120 h, time 5 day", "value": 36.37, "unit": "%"}, {"measurement": "HEMOGLOBIN", "setting": "120 h, time 5 day", "value": 13.93, "unit": "G/DL"}, {"measurement": "LEUKOCYTE COUNT", "setting": "120 h, time 5 day", "value": 12.77, "unit": "x10E3/uL"}, {"measurement": "LYMPHOCYTE", "setting": "120 h, time 5 day", "value": 87.33, "unit": "%"}, {"measurement": "MEAN CORPUSCULAR HEMOGLOBIN", "setting": "120 h, time 5 day", "value": 25, "unit": "pg"}, {"measurement": "MEAN CORPUSCULAR HEMOGLOBIN CONCENTRATION", "setting": "120 h, time 5 day", "value": 38.33, "unit": "G/DL"}, {"measurement": "MEAN CORPUSCULAR VOLUME", "setting": "120 h, time 5 day", "value": 65.23, "unit": "fL"}, {"measurement": "MONOCYTE", "setting": "120 h, time 5 day", "value": 2.33, "unit": "%"}, {"measurement": "NEUTROPHIL", "setting": "120 h, time 5 day", "value": 10, "unit": "%"}, {"measurement": "NUCLEATED RED BLOOD CELLS", "setting": "120 h, time 5 day", "value": "0 /100WBC"}, {"measurement": "PLATELET COUNT", "setting": "120 h, time 5 day", "value": 1176, "unit": "x10E3/uL"}, {"measurement": "ALANINE AMINOTRANSFERASE", "setting": "120 h, time 5 day", "value": 52, "unit": "u/L"}, {"measurement": "ALBUMIN", "setting": "120 h, time 5 day", "value": 4.27, "unit": "G/DL"}, {"measurement": "ALKALINE PHOSPHATASE", "setting": "120 h, time 5 day", "value": 326, "unit": "u/L"}, {"measurement": "ASPARTATE AMINOTRANSFERASE", "setting": "120 h, time 5 day", "value": 65.67, "unit": "u/L"}, {"measurement": "BLOOD UREA NITROGEN", "setting": "120 h, time 5 day", "value": 16, "unit": "mg/dL"}, {"measurement": "CARBON DIOXIDE", "setting": "120 h, time 5 day", "value": 24.67, "unit": "mmol/L"}, {"measurement": "CHLORIDE", "setting": "120 h, time 5 day", "value": 108.33, "unit": "MEQ/L"}, {"measurement": "CHOLESTEROL", "setting": "120 h, time 5 day", "value": 74.67, "unit": "mg/dL"}, {"measurement": "CREATINE PHOSPHOKINASE", "setting": "120 h, time 5 day", "value": 187, "unit": "u/L"}, {"measurement": "CREATININE", "setting": "120 h, time 5 day", "value": 0.16, "unit": "mg/dL"}, {"measurement": "GLUCOSE", "setting": "120 h, time 5 day", "value": 176.33, "unit": "mg/dL"}, {"measurement": "LACTATE DEHYDROGENASE", "setting": "120 h, time 5 day", "value": 75.67, "unit": "u/L"}, {"measurement": "LIPASE", "setting": "120 h, time 5 day", "value": 10.33, "unit": "u/L"}, {"measurement": "PHOSPHORUS", "setting": "120 h, time 5 day", "value": 10.53, "unit": "mg/dL"}, {"measurement": "POTASSIUM", "setting": "120 h, time 5 day", "value": 4.45, "unit": "MEQ/L"}, {"measurement": "SODIUM", "setting": "120 h, time 5 day", "value": 149.7, "unit": "MEQ/L"}, {"measurement": "TOTAL BILIRUBIN", "setting": "120 h, time 5 day", "value": 0.1, "unit": "mg/dL"}, {"measurement": "TOTAL PROTEIN", "setting": "120 h, time 5 day", "value": 6.33, "unit": "G/DL"}, {"measurement": "URIC ACID", "setting": "120 h, time 5 day", "value": 0.6, "unit": "mg/dL"}]}
